The values that follow come from ChEMBL document CHEMBL4177609, “Identification of pyrrolo[2,3-d]pyrimidines as potent HCK and FLT3-ITD dual inhibitors” (Bioorg Med Chem Lett, 2017).

Molecules are shown by their SMILES. Bounds are passed on as bounds.

Assay [1] concerns the target Receptor-type tyrosine-protein kinase FLT3 (Homo sapiens, UniProt P36888, ITD). Briefly: Inhibition of recombinant human C-terminal FLT3 ITD mutant (571 to 993 residues) after 90 mins by mobility shift assay.
The next assay concerns MV4-11. Description: Growth inhibition of human MV4-11 cells after 3 days by Alamar blue assay. The format is functional. The conditions noted are these: MV4-11, 72 h. In general terms: The colour change of resazurin is a common sign of viable cells or microbes.
In assay [2] the target is Tyrosine-protein kinase HCK (Homo sapiens, UniProt P08631).
Chain of Tyrosine-protein kinase HCK (P08631 whole entry): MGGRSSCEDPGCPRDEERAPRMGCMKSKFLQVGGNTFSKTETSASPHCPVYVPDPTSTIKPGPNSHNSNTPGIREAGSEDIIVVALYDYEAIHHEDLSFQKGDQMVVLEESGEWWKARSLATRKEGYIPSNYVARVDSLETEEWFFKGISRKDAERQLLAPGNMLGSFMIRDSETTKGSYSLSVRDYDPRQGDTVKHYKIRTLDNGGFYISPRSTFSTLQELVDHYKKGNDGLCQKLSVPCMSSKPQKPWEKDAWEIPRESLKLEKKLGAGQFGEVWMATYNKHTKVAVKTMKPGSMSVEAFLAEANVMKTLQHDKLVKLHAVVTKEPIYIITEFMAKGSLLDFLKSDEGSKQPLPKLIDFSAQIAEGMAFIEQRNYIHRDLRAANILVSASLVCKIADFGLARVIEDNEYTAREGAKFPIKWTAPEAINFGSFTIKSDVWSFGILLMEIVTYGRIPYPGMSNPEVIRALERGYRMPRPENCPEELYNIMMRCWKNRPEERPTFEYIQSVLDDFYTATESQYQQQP
Description: Inhibition of recombinant human HCK SH3-SH2-KD (75 to 526 residues) after 20 mins by mobility shift assay

Chain of Receptor-type tyrosine-protein kinase FLT3 (P36888 whole entry, looked up, stated change not applied, the tested form may be a part): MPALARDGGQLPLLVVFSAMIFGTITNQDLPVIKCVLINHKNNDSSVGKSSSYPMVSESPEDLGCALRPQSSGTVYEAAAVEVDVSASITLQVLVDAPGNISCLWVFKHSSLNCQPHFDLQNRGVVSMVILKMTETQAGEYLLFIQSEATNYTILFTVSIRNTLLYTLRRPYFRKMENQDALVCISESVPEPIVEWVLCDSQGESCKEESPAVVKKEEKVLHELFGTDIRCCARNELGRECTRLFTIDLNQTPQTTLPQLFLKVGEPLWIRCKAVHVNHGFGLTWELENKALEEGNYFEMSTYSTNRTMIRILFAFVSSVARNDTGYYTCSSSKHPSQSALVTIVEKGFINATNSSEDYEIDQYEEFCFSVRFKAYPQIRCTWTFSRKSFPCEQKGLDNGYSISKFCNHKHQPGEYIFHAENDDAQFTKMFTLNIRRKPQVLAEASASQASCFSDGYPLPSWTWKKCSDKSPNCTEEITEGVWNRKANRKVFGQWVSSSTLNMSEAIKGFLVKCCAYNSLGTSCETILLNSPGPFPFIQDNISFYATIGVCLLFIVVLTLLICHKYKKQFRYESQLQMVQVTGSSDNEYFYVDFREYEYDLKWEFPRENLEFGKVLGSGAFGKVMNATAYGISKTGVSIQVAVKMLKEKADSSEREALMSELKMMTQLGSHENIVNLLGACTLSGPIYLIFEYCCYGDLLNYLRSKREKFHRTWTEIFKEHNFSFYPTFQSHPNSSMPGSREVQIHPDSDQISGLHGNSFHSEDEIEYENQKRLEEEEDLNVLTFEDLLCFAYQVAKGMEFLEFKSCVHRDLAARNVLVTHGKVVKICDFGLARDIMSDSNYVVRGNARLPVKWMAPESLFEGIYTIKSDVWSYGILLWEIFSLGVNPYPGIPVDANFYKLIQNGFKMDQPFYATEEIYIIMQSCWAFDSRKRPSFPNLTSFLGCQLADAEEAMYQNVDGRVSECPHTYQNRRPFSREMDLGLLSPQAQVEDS

By IC50 is commonly meant the concentration at which inhibition is half-maximal. Broadly, the GI50 is the concentration giving 50% growth inhibition. Higher therefore signals less potent growth inhibition. As for `Nc1ncnc2c1c(-c1ccc(Oc3ccccc3)cc1)cn2[C@H]1CC[C@H](NCC(=O)O)CC1`, the results for the IC50 in assay [1] and in assay [2] were 28 nM and 3.7 nM, respectively. The same compound registered a GI50 in the assay with MV4-11 of 98 nM.
With `CC(C)C[C@H](N[C@H]1CC[C@H](n2cc(-c3ccc(Oc4ccccc4)cc3)c3c(N)ncnc32)CC1)C(=O)O`, the figures for the half-inhibitory concentration (IC50) in assay [1] and in assay [2] were 14 nM and 4.4 nM, respectively. In the assay on MV4-11, the concentration for 50% growth inhibition (GI50) was 21 nM.
On to `Nc1ncnc2c1c(-c1ccc(Oc3ccccc3)cc1)cn2[C@H]1CC[C@@H](NCC(=O)O)CC1`, for which the results for the concentration for half-maximal inhibition (IC50) in assay [1] and in assay [2] were 32 nM and 12 nM, respectively.
`Nc1ncnc2c1c(-c1ccc(Oc3ccccc3)cc1)cn2[C@H]1CC[C@H](N[C@H]2CCOC2=O)CC1`: the IC50 in assay [1] stood at 25 nM; in assay [2], 28 nM.
On the same counts, the results for `Nc1ncnc2c1c(-c1ccc(Oc3ccccc3)cc1)cn2[C@H]1CC[C@@H](N[C@H](CO)C(=O)O)CC1` are 12 nM and 23 nM.
For `Nc1ncnc2c1c(-c1ccc(Oc3ccccc3)cc1)cn2[C@H]1CC[C@H](NCCC(=O)O)CC1`, the half-inhibitory concentration (IC50) in assay [1] was determined as 33 nM; in assay [2] it was 15 nM.
On the same counts, the results for `Nc1ncnc2c1c(-c1ccc(Oc3ccccc3)cc1)cn2[C@H]1CC[C@@H](N[C@@H](CO)C(=O)O)CC1` are 13 nM and 40 nM.
The corresponding values for `Nc1ncnc2c1c(-c1ccc(Oc3ccccc3)cc1)cn2[C@H]1CC[C@@H](N[C@@H](Cc2ccccc2)C(=O)O)CC1` are 3.1 nM and 74 nM.
On the same counts, the results for `Nc1ncnc2c1c(-c1ccc(Oc3ccccc3)cc1)cn2[C@H]1CC[C@H](N[C@H](Cc2ccccc2)C(=O)O)CC1` are 27 nM and 24 nM.
For the compound `C[C@@H](N[C@H]1CC[C@@H](n2cc(-c3ccc(Oc4ccccc4)cc3)c3c(N)ncnc32)CC1)C(=O)O`, the values for the 50% inhibitory concentration (IC50) in assay [1] and in assay [2] were 23 nM and 36 nM, respectively.
For `C[C@H](N[C@H]1CC[C@H](n2cc(-c3ccc(Oc4ccccc4)cc3)c3c(N)ncnc32)CC1)C(=O)O`, the IC50 in assay [1] was 39 nM; in assay [2], 6.9 nM.
The corresponding values for `Nc1ncnc2c1c(-c1ccc(Oc3ccccc3)cc1)cn2[C@H]1CC[C@H](N2CCC[C@H]2C(=O)O)CC1` are 26 nM and 52 nM.
The corresponding values for `CC(C)CCN[C@H]1CC[C@H](n2cc(-c3ccc(Oc4ccccc4)cc3)c3c(N)ncnc32)CC1` are 56 nM and 226 nM.
As to `Nc1ncnc2c1c(-c1ccc(Oc3ccccc3)cc1)cn2[C@H]1CC[C@@H](N[C@H]2CCOC2=O)CC1`, the IC50 was 27 nM in assay [1] and 5.4 nM in assay [2]. In the assay on MV4-11, this compound showed a GI50 of 29 nM.
For the compound `Nc1ncnc2c1c(-c1ccc(Oc3ccccc3)cc1)cn2[C@H]1CC[C@H](N[C@@H](CO)C(=O)O)CC1`, the half-maximal inhibitory concentration (IC50) came to 18 nM in assay [1] and 1.8 nM in assay [2]. In the assay on MV4-11, this compound returned a concentration for 50% growth inhibition (GI50) above 100 nM.
`CC(C)C[C@H](N[C@H]1CC[C@@H](n2cc(-c3ccc(Oc4ccccc4)cc3)c3c(N)ncnc32)CC1)C(=O)O`: the half-inhibitory concentration (IC50) in assay [1] is 23 nM; in assay [2] it was 105 nM.
As for `CC(C)C[C@@H](N[C@H]1CC[C@H](n2cc(-c3ccc(Oc4ccccc4)cc3)c3c(N)ncnc32)CC1)C(=O)O`, the IC50 was 53 nM in assay [1] and 27 nM in assay [2].
For `C[C@H](N[C@H]1CC[C@@H](n2cc(-c3ccc(Oc4ccccc4)cc3)c3c(N)ncnc32)CC1)C(=O)O`, the half-inhibitory concentration (IC50) in assay [1] worked out at 20 nM; in assay [2] it was 73 nM.
On the same counts, the results for `Nc1ncnc2c1c(-c1ccc(Oc3ccccc3)cc1)cn2[C@H]1CC[C@H](N[C@@H](Cc2ccc(O)cc2)C(=O)O)CC1` are 28 nM and 7.4 nM.
With `Nc1ncnc2c1c(-c1ccc(Oc3ccccc3)cc1)cn2[C@H]1CC[C@@H](N[C@H](Cc2ccccc2)C(=O)O)CC1`, the IC50 in assay [1] came to 2.6 nM; in assay [2], 18 nM. Moreover, halving of growth in the assay with MV4-11 (GI50) required 26 nM.
Take `Nc1ncnc2c1c(-c1ccc(Oc3ccccc3)cc1)cn2[C@H]1CC[C@H](N2CCC[C@@H]2C(=O)O)CC1`: the values for the IC50 in assay [1] and in assay [2] were 126 nM and 200 nM, respectively.
Regarding `Nc1ncnc2c1c(-c1ccc(Oc3ccccc3)cc1)cn2[C@H]1CC[C@@H](N2CCC[C@H]2C(=O)O)CC1`, the values for the half-maximal inhibitory concentration (IC50) in assay [1] and in assay [2] were 20 nM and 79 nM, respectively.
For `CC(C)C[C@@H](N[C@H]1CC[C@@H](n2cc(-c3ccc(Oc4ccccc4)cc3)c3c(N)ncnc32)CC1)C(=O)O`, the IC50 came to 35 nM in assay [1] and 137 nM in assay [2].
On the same counts, the results for `C[C@@H](N[C@H]1CC[C@H](n2cc(-c3ccc(Oc4ccccc4)cc3)c3c(N)ncnc32)CC1)C(=O)O` are 39 nM and 36 nM.
With `Nc1ncnc2c1c(-c1ccc(Oc3ccccc3)cc1)cn2[C@H]1CC[C@H](N[C@H](Cc2ccc(O)cc2)C(=O)O)CC1`, the IC50 in assay [1] was 11 nM; in assay [2] it was 15 nM.
On the same counts, the results for `CC(C)CCN[C@H]1CC[C@@H](n2cc(-c3ccc(Oc4ccccc4)cc3)c3c(N)ncnc32)CC1` are 44 nM and 119 nM.
`Nc1ncnc2c1c(-c1ccc(Oc3ccccc3)cc1)cn2[C@H]1CC[C@@H](N[C@@H](Cc2ccc(O)cc2)C(=O)O)CC1`: the IC50 in assay [1] was 5 nM; in assay [2], 39 nM.
As for `Nc1ncnc2c1c(-c1ccc(Oc3ccccc3)cc1)cn2[C@H]1CC[C@H](N[C@H](CO)C(=O)O)CC1`, the IC50 was determined as 17 nM in assay [1] and 6.3 nM in assay [2].
The corresponding values for `Nc1ncnc2c1c(-c1ccc(Oc3ccccc3)cc1)cn2[C@H]1CC[C@H](N[C@@H](Cc2ccccc2)C(=O)O)CC1` are 24 nM and 7.5 nM.
On to `Nc1ncnc2c1c(-c1ccc(Oc3ccccc3)cc1)cn2[C@H]1CC[C@@H](N2CCC[C@@H]2C(=O)O)CC1`, for which the IC50 was 16 nM in assay [1] and 65 nM in assay [2].
Turning to `Nc1ncnc2c1c(-c1ccc(Oc3ccccc3)cc1)cn2[C@H]1CC[C@@H](N[C@H](Cc2ccc(O)cc2)C(=O)O)CC1`, the half-inhibitory concentration (IC50) in assay [1] came out at 5 nM; in assay [2], 13 nM. The GI50 in the assay on MV4-11 stood at 18 nM.
On to `CN1CCN([C@H]2CC[C@H](n3cc(-c4ccc(Oc5ccccc5)cc4)c4c(N)ncnc43)CC2)CC1`, for which the concentration for 50% growth inhibition (GI50) in the assay on MV4-11 is 40 nM. Besides, the IC50 in assay [2] turned out to be 0.4 nM.
